{"source": "patent US20060166941A1", "about": "“Treatment and/or prevention of non-viral epithelial damage” (Epistem Limited, priority 2003, published 2006)", "origin": "cited, not measured here", "tested_on": "Na+/Pi cotransport across renal cortical brush border membrane", "details": "Hoppe et al. 1988; cited from earlier work", "data": [{"smiles": "O=C(O)C(Cl)(Br)P(=O)(O)O", "note": "(stereo not drawn) [alpha-Cl-alpha-Br-phosphonoacetate]", "values": [{"measurement": "inhibitory activity relative to phosphonoformic acid", "value": "threefold greater inhibitory activity than phosphonoformic acid"}]}]}
